target: Sigma non-opioid intracellular receptor 1 (Cavia porcellus) (UniProt Q60492); test: Displacement of [3H](+)-pentazocine from Sigma opioid receptor type 1 in guinea pig brain membrane
Sequence (Q60492 whole entry, looked up): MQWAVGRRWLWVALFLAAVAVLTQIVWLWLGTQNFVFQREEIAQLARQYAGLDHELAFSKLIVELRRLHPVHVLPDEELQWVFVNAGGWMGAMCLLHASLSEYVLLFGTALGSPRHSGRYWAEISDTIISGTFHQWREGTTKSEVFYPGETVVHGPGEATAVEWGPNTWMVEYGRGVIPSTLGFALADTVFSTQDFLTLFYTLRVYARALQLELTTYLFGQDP

| Ki [nM] | Structure (SMILES) |
| --- | --- |
| 276 | CN(CCc1ccc(N)cc1)CCN1CCCC1 [4-{2-[Methyl-(2-pyrrolidin-1-yl-ethyl)-amino]-ethyl}-phenylamine] |
| 7.7 | CN(CCc1ccccc1[N+](=O)[O-])CCN1CCCC1 [Methyl-[2-(2-nitro-phenyl)-ethyl]-(2-pyrrolidin-1-yl-ethyl)-amine] |
| 6.4 | CN(CCc1cccc([N+](=O)[O-])c1)CCN1CCCC1 [Methyl-[2-(3-nitro-phenyl)-ethyl]-(2-pyrrolidin-1-yl-ethyl)-amine] |
| 15.7 | COc1ccccc1CCN(C)CCN1CCCC1 [[2-(2-Methoxy-phenyl)-ethyl]-methyl-(2-pyrrolidin-1-yl-ethyl)-amine] |
| 23.8 | COc1cccc(CCN(C)CCN2CCCC2)c1 [[2-(3-Methoxy-phenyl)-ethyl]-methyl-(2-pyrrolidin-1-yl-ethyl)-amine] |

The remaining lines, values behind:

| Structure (SMILES) | Ki [nM] |
| --- | --- |
| COc1cccc(CC(=O)N(C)CCN2CCCC2)c1 [2-(3-Methoxy-phenyl)-N-methyl-N-(2-pyrrolidin-1-yl-ethyl)-acetamide] | 3100 |
| COc1ccc(CC(=O)N(C)CCN2CCCC2)cc1 [2-(4-Methoxy-phenyl)-N-methyl-N-(2-pyrrolidin-1-yl-ethyl)-acetamide] | 2220 |
| CN(CCc1ccccc1N)CCN1CCCC1 [2-{2-[Methyl-(2-pyrrolidin-1-yl-ethyl)-amino]-ethyl}-phenylamine] | 291 |
| CN(CCc1cccc(N)c1)CCN1CCCC1 [3-{2-[Methyl-(2-pyrrolidin-1-yl-ethyl)-amino]-ethyl}-phenylamine] | 579 |
| CN(CCc1ccc([N+](=O)[O-])cc1)CCN1CCCC1 [Methyl-[2-(4-nitro-phenyl)-ethyl]-(2-pyrrolidin-1-yl-ethyl)-amine] | 4.3 |
| CN(CCN1CCCC1)C(=O)Cc1ccccc1[N+](=O)[O-] [N-Methyl-2-(2-nitro-phenyl)-N-(2-pyrrolidin-1-yl-ethyl)-acetamide] | 736 |
| CN(CCN1CCCC1)C(=O)Cc1cccc([N+](=O)[O-])c1 [N-Methyl-2-(3-nitro-phenyl)-N-(2-pyrrolidin-1-yl-ethyl)-acetamide] | 1850 |
| CN(CCN1CCCC1)C(=O)Cc1ccc([N+](=O)[O-])cc1 [N-Methyl-2-(4-nitro-phenyl)-N-(2-pyrrolidin-1-yl-ethyl)-acetamide] | 869 |
| COc1ccc(CCN(C)CCN2CCCC2)cc1 [[2-(4-Methoxy-phenyl)-ethyl]-methyl-(2-pyrrolidin-1-yl-ethyl)-amine] | 30.3 |

Source: BindingDB's records for doi:10.1021/jm9600813 (National Institute of Diabetes and Digestive and Kidney …, 1996)
